Measurements taken from ChEMBL document CHEMBL1121435, “Prostaglandin analogues possessing antinidatory effects. 2. Modification of the alpha chain” (1980).

How the values were obtained:
Type in all cases: functional
Rattus norvegicus [1] = assay: Antinidatory effect was measured in the rat, relative to that of prostaglandin F2-alpha (ED50 = 1.3 (0.9-1.87)mg/kg)
Rattus norvegicus [2] = assay: Antinidatory effect was measured in the rat, relative to that of prostaglandin F2alpha (ED50 = 1.3 (0.9-1.87) mg/kg); Range 200-400
Rattus norvegicus [3] = assay: Antinidatory effect was measured in the rat, relative to that of prostaglandin F2-alpha (ED50 = 1.3 (0.9-1.87) mg/kg); Range 2-4
Rattus norvegicus [4] = assay: Antinidatory effect was measured in the rat, relative to that of prostaglandin F2-alpha (ED50 = 1.3 (0.9-1.87) mg/kg); Range 4-8

Row | Structure (SMILES) | Relative activity (Rattus norvegicus [1]) | also measured
1 | COC(=O)C/C=C/C=C\C[C@@H]1[C@@H](/C=C/[C@@H](O)COc2cccc(C(F)(F)F)c2)[C@H](O)C[C@@H]1O | 100 | –
2 | COC(=O)C/C=C/C=C\C[C@@H]1[C@@H](/C=C/[C@@H](O)COc2ccc(Cl)cc2)[C@H](O)C[C@@H]1O | – | Relative activity (Rattus norvegicus [2]): 200
3 | COC(=O)/C=C/C=C/CC[C@@H]1C(/C=C/[C@@H](O)COc2ccccc2)[C@H](O)C[C@@H]1O (some centres not stated) | 20 | –
4 | COC(=O)C/C=C/C=C\C[C@@H]1[C@@H](/C=C/[C@@H](O)COc2cccc(Cl)c2)[C@H](O)C[C@@H]1O | 800 | –
5 | COC(=O)C/C=C/C=C/C[C@@H]1[C@@H](/C=C/[C@@H](O)COc2cccc(Cl)c2)[C@H](O)C[C@@H]1O | 100 | –
6 | COC(=O)/C=C/C/C=C\C[C@@H]1[C@@H](/C=C/[C@@H](O)COc2ccccc2)[C@H](O)C[C@@H]1O | – | Relative activity (Rattus norvegicus [2]): 200
7 | COC(=O)C/C=C/C=C\C[C@@H]1[C@@H](/C=C/[C@@H](O)COc2ccccc2)[C@H](O)C[C@@H]1O | 800 | –
8 | COC(=O)C/C=C/C=C/C[C@@H]1[C@@H](/C=C/[C@@H](O)COc2ccccc2)[C@H](O)C[C@@H]1O | 200 | –
9 | O=C(O)/C=C/CCCC[C@@H]1[C@@H](/C=C/[C@@H](O)COc2cccc(C(F)(F)F)c2)[C@H](O)C[C@@H]1O | 4 | –
10 | COC(=O)CC=C/C=C\C[C@@H]1[C@@H](/C=C/[C@@H](O)COc2cccc(Cl)c2)[C@H](O)C[C@@H]1O | 600 | –
11 | COC(=O)C(CC/C=C\C[C@@H]1[C@@H](/C=C/[C@@H](O)COc2cccc(Cl)c2)[C@H](OC2CCCCO2)C[C@@H]1OC1CCCCO1)[Se]c1ccccc1 (some centres not stated) | 1 | –
12 | COC(=O)CC=C/C=C\C[C@@H]1[C@@H](/C=C/[C@@H](O)COc2ccccc2)[C@H](O)C[C@@H]1O | 1200 | –
13 | COC(=O)CCC/C=C\C[C@@H]1[C@@H](/C=C/[C@@H](O)COc2cccc(C(F)(F)F)c2)[C@H](O)C[C@@H]1O | 100 | –
14 | COC(=O)/C=C/C/C=C\C[C@@H]1[C@@H](/C=C/[C@@H](O)COc2ccc(Cl)cc2)[C@H](O)C[C@@H]1O | 100 | –
15 | COC(=O)/C=C/C/C=C/C[C@@H]1[C@@H](/C=C/[C@@H](O)COc2cccc(Cl)c2)[C@H](O)C[C@@H]1O | 100 | –
16 | COC(=O)CCC/C=C\C[C@@H]1[C@@H](/C=C/[C@@H](O)COc2cccc(Cl)c2)[C@H](O)C[C@@H]1O | 200 | –
17 | COC(=O)CCC/C=C\C[C@@H]1[C@@H](/C=C/[C@@H](O)COc2ccccc2)[C@H](O)C[C@@H]1O | – | Relative activity (Rattus norvegicus [2]): 200
18 | O=C(O)/C=C\CCCC[C@@H]1[C@@H](/C=C/[C@@H](O)COc2cccc(C(F)(F)F)c2)[C@H](O)C[C@@H]1O | – | Relative activity (Rattus norvegicus [3]): 2
19 | O=C(O)/C=C/C/C=C\C[C@@H]1[C@@H](/C=C/[C@@H](O)COc2cccc(Cl)c2)[C@H](O)C[C@@H]1O | 200 | –
20 | COC(=O)C/C=C/CCC[C@@H]1[C@@H](/C=C/[C@@H](O)COc2ccccc2)[C@H](O)C[C@@H]1O | 40 | –
21 | COC(=O)/C=C/C=C/CC[C@@H]1C(/C=C/[C@@H](O)COc2cccc(Cl)c2)[C@H](O)C[C@@H]1O (some centres not stated) | – | Relative activity (Rattus norvegicus [4]): 4
22 | COC(=O)/C=C/C/C=C\C[C@@H]1[C@@H](/C=C/[C@@H](O)COc2cccc(C(F)(F)F)c2)[C@H](O)C[C@@H]1O | 100 | –
